Test [1] is filed under the species Rattus norvegicus. In words: Binding affinity against 5-HT uptake site, using [3H]citalopram as radioligand in rat cortical membrane. The test is classed as functional.
The species named for test [2] is Rattus norvegicus. The test is described as follows: Binding affinity against NE uptake site, using [3H]nisoxetine as radioligand in rat striatal membrane. The test is classed as functional, Striatum.
The species named for test [3] is Rattus norvegicus. The test is described as follows: Binding affinity against DA uptake site, using [125I]beta-CIT as radioligand in rat striatal membrane. The format is functional, Striatum.

Where a name gives a salt, the structure may show the parent alone.

What is called Ki is a measure of affinity in units of concentration, obtained from inhibition or displacement. Take `CNCC[C@@H](Oc1ccccc1C)c1ccccc1` [ATOMOXETINE HYDROCHLORIDE]: the affinity in the test listed under Rattus norvegicus [1], expressed as Ki, was 0.0251 µM.
For the compound `CNCC[C@@H](Oc1ccc(C)cc1I)c1ccccc1`, the Ki came to 0.0034 µM in the test filed under Rattus norvegicus [2], 0.00518 µM in the test listed under Rattus norvegicus [1] and 11.3 µM in the test listed under Rattus norvegicus [3].
In the case of `CNCC[C@@H](Oc1ccccc1I)c1ccccc1`, the Ki in the test filed under Rattus norvegicus [2] was found to be 0.00024 µM; in the test listed under Rattus norvegicus [1], 0.0171 µM.
On to `CNCC[C@H](Oc1ccc(C)cc1I)c1ccccc1`, for which the Ki in the test filed under Rattus norvegicus [2] worked out at 0.154 µM; in the test listed under Rattus norvegicus [1], 0.00573 µM; in the test filed under Rattus norvegicus [3] it was 0.41 µM.
Turning to `CNCC[C@@H](Oc1cccc(I)c1)c1ccccc1`, the Ki in the test listed under Rattus norvegicus [2] is 0.0014 µM; in the test filed under Rattus norvegicus [1], 0.0144 µM; in the test listed under Rattus norvegicus [3], 0.486 µM.
Consider `CNCC[C@@H](Oc1ccc(I)cc1)c1ccccc1`, for which the values for the Ki in the test listed under Rattus norvegicus [2] and in the test listed under Rattus norvegicus [1] were 0.00321 µM and 0.00127 µM, respectively.
Take `CNCC[C@H](Oc1ccc(I)cc1C)c1ccccc1`: the Ki in the test filed under Rattus norvegicus [2] is 1.16 µM; in the test listed under Rattus norvegicus [1] it was 0.0139 µM; in the test listed under Rattus norvegicus [3], 0.636 µM.
The matching figures for `CNCC[C@H](Oc1cccc(I)c1)c1ccccc1`: 0.0018 µM, 0.004 µM and 0.208 µM.
Consider `CNCC[C@H](Oc1ccc(I)c(C)c1)c1ccccc1`, for which the Ki is 0.351 µM in the test filed under Rattus norvegicus [2], 0.0003 µM in the test listed under Rattus norvegicus [1] and 0.2 µM in the test listed under Rattus norvegicus [3].
On the same counts, the results for `CNCC[C@@H](Oc1ccc(I)c(C)c1)c1ccccc1` are 0.128 µM, 0.00069 µM and 0.22 µM.
The matching figures for `CNCC[C@@H](Oc1ccc(I)cc1C)c1ccccc1`: 0.069 µM, 0.00065 µM and 0.845 µM.
For `CNCC[C@H](Oc1ccc(I)cc1)c1ccccc1`, the figures for the Ki in the test filed under Rattus norvegicus [2] and in the test filed under Rattus norvegicus [1] were 0.245 µM and 0.0008 µM, respectively.
The matching figures for `CNCC[C@H](Oc1ccccc1I)c1ccccc1`: 0.00935 µM and 0.0131 µM.

The values are drawn from ChEMBL document CHEMBL1126094, “Iodinated tomoxetine derivatives as selective ligands for serotonin and norepinephrine uptake sites” (J Med Chem, 1992).
